# Results taken from patent US9567339B2, “Primary carboxamides as BTK inhibitors” (AbbVie Inc., priority 2013, dated 2017).
# Target: BTK, recombinant human catalytic domain (aa 393-659) (Homo sapiens (Human), UniProt Q06187)
# Test: In vitro BTK kinase activity measured by time-resolved fluorescence resonance energy transfer (trFRET)
# Type: biochemical
# Conditions: read-out: Btk IC50
# Chain of BTK, recombinant human catalytic domain (aa 393-659) (Q06187 393-659): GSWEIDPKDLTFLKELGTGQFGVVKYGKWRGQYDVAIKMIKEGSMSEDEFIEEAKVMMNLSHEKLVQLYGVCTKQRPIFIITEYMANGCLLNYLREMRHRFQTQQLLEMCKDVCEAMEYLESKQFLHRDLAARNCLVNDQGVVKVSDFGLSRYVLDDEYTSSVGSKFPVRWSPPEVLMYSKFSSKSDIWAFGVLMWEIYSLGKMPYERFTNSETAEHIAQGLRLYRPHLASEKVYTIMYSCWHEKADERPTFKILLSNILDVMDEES
row,SMILES,IC50 [nM]
1,C=CC(=O)N(C)c1cccc(-c2ccc(C(N)=O)c3[nH]ccc23)c1 [E.1.5],< 100
2,COC(=O)/C=C/C(=O)Nc1cccc(-c2ccc(C(N)=O)c3[nH]c(C4=CCN(S(C)(=O)=O)CC4)cc23)c1C [D.7.18],< 100
3,COc1ccc(C(=O)N[C@@H]2CCCN(c3ccc(C(N)=O)c4[nH]c(-c5cnn(C)c5)cc34)C2)cc1 [O.1.20*],100 to 1000
4,Cc1c(NC(=O)c2ccc(C(F)F)cc2)cccc1-c1ccc(C(N)=O)c2[nH]ccc12 [O.1.1],100 to 1000
5,C=CC(=O)N1CCOC[C@H](c2ncc(C(N)=O)c3[nH]ccc23)C1 [E.9.31],1000 to 10000
6,C=CC(=O)N1CC(N(C)c2ccc(C(N)=O)c3[nH]c(-c4cc5n(n4)CCOC5)cc23)C1 [E.9.4],< 100
7,CCC(=O)N1CC[C@H](c2ccc(C(N)=O)c3[nH]c(C)cc23)C1 [E.10.1],100 to 1000
8,C=CC(=O)N1CC(N(C)c2ccc(C(N)=O)c3[nH]c(C4=CCC(F)(F)CC4)cc23)C1 [E.9.5],< 100
9,Cc1c(NC(=O)C2=CCCC2)cccc1-c1ccc(C(N)=O)c2[nH]c(C3=CCN(S(C)(=O)=O)CC3)cc12 [D.7.15],< 100
10,C=CC(=O)N1CC(N(C)c2ccc(C(N)=O)c3[nH]c(C4CCN(CCC)CC4)cc23)C1 [E.9.20],< 100

# The remaining lines, values ahead:
row,IC50 [nM],SMILES
1,< 100,Cc1c(NC(=O)C(F)(F)Cl)cccc1-c1ccc(C(N)=O)c2[nH]c(C3=CCN(S(C)(=O)=O)CC3)cc12 [D.7.7]
2,1000 to 10000,C=CC(=O)N1C[C@@H](CO)C[C@@H](c2ccc(C(N)=O)c3[nH]ccc23)C1 [E.9.45]
3,< 100,Cc1ccc(-c2cc3c(-c4nccs4)ccc(C(N)=O)c3[nH]2)cc1 [U.1.2]
4,< 100,Cc1c(NC(=O)C2CCCC2)cccc1-c1ccc(C(N)=O)c2[nH]c(C3=CCN(S(C)(=O)=O)CC3)cc12 [D.7.31]
5,< 100,Cc1c(-c2ccc(C(N)=O)c3[nH]c(-c4cnn(C[C@H](O)CO)c4)cc23)cccc1-n1cnc2ccccc2c1=O [K.1.1]
6,< 100,C=CC(=O)Nc1cccc(-c2ccc(C(N)=O)c3[nH]ccc23)c1F [E.1.33]
7,< 100,Cc1c(NC(=O)COc2ccccn2)cccc1-c1ccc(C(N)=O)c2[nH]c(C3=CCN(S(C)(=O)=O)CC3)cc12 [D.7.24]
8,100 to 1000,C=CC(=O)N1C[C@H]2CN(c3ccc(C(N)=O)c4[nH]ccc34)C[C@H]21 [E.9.42]
9,< 100,C=CC(=O)N[C@@H]1CCCN(c2ccc(C(N)=O)c3[nH]c(C4=CCN(S(C)(=O)=O)CC4)cc23)C1 [E.1.11*]
10,1000 to 10000,Cc1c(NC(=O)/C=C/CN2CCOCC2)cccc1-c1ccc(C(N)=O)c2[nH]ccc12 [J.1.5]
11,100 to 1000,C=CC(=O)N1CC[C@@H](c2ccc(C(N)=O)c3[nH]c(C)cc23)C1 [E.9.40*]
12,< 100,Cc1c(NC(=O)COc2ccccc2)cccc1-c1ccc(C(N)=O)c2[nH]c(C3=CCN(S(C)(=O)=O)CC3)cc12 [D.7.21]
13,100 to 1000,"C=CC(=O)N(CC(C)C)c1cccc(-c2ccc(C(N)=O)c3[nH]ccc23)c1 [E.1.35, 4-(3-(N-isobutylacrylamido)phenyl)-1H-indole-7-carboxamide]"

# Same assay, conditions: trFRET, 0.001 mM ATP, biotin-TYR1 peptide substrate; read-out: Btk IC50
row,SMILES,IC50 [nM]
1,Cc1c(NC(=O)c2nccs2)cccc1-c1ccc(C(N)=O)c2[nH]c(-c3ccccc3CNC(=O)COc3ccc(F)cc3)cc12 [D.1.7],1000 to 10000
2,"C=CC(=O)N1CC([C@@H](C)c2ccc(C(N)=O)c3[nH]ccc23)C1 [28 (R), (R)-4-(1-(1-acryloylazetidin-3-yl)ethyl)-1H-indole-7-carboxamide]",< 100
3,CC(=O)N1CC=C(c2cc3c(-c4cccc(NC(=O)c5ccc(C6CC6)cc5)c4C)ccc(C(N)=O)c3[nH]2)CC1 [A.3.6],< 100
4,"Cc1c(-c2ccc(C(N)=O)c3[nH]c(C4=CCNC4)cc23)cccc1-n1cnc2ccccc2c1=O [G.1, 2-(2,5-Dihydro-1H-pyrrol-3-yl)-4-(2-methyl-3-(4-oxoquinazolin-3(4H)-yl)phenyl)-1H-indole-7-carboxamide]",< 100
5,"NC(=O)c1ccc(-c2cccc(NC(=O)/C=C/C(=O)O)c2)c2cc[nH]c12 [C.1, (E)-4-((3-(7-Carbamoyl-1H-indol-4-yl)phenyl)amino)-4-oxobut-2-enoic acid]",1000 to 10000
6,N#CCNS(=O)(=O)c1cccc(-c2ccc(C(N)=O)c3[nH]ccc23)c1 [A.6.1],1000 to 10000
7,"Cc1c(N)cccc1-c1ccc(C(N)=O)c2[nH]c(C3=CCN(S(C)(=O)=O)CC3)cc12 [A.4.5, 4-(3-amino-2-methylphenyl)-2-(1-(methylsulfonyl)-1,2,3,6-tetrahydropyridin-4-yl)-1H-indole-7-carboxamide]",< 100
8,"C=CC(=O)Nc1cccc(-c2ccc(C(N)=O)c3[nH]c(CCOCC)cc23)c1 [Example 22, 4-(3-Acrylamidophenyl)-2-(2-ethoxyethyl)-1H-indole-7-carboxamide]",< 100
9,Cc1c(NC(=O)c2ccc(C3CC3)cc2)cccc1-c1ccc(C(N)=O)c2[nH]c(-c3cncnc3)cc12 [A.13.4],100 to 1000
10,Cc1c(-c2ccc(C(N)=O)c3[nH]c(C4=CCN(S(C)(=O)=O)CC4)cc23)cccc1N(CCO)C(=O)c1ccc(C(F)F)cc1 [A.4.14],< 100
11,C=CC(=O)Nc1cccc(-c2ccc(C(N)=O)c3[nH]c(-c4ccnc(OC)c4)cc23)c1C [A.1.13],< 100
12,C=CC(=O)Nc1cccc(-c2ccc(C(N)=O)c3[nH]c(-c4cccc(C#N)c4)cc23)c1C [A.1.14],< 100

# Further lines, results first:
row,IC50 [nM],SMILES
1,< 100,C=CC(=O)Nc1cccc(-c2ccc(C(N)=O)c3[nH]c(-c4ccc(C(=O)N(C)C)cc4)cc23)c1C [A.1.35]
2,< 100,"Cc1c(-c2ccc(C(N)=O)c3[nH]c(-c4cnn(C)c4)cc23)cccc1N(C(=O)c1nccs1)C1COC1 [A.10.3, N-(3-(7-carbamoyl-2-(1-methyl-1H-pyrazol-4-yl)-1H-indol-4-yl)-2-methylphenyl)-N-(oxetan-3-yl)thiazole-2-carboxamide]"
3,< 100,C=CC(=O)Nc1cccc(-c2ccc(C(N)=O)c3[nH]c(-c4ccc(CN5CCOCC5)cc4)cc23)c1C [A.1.44]
4,1000 to 10000,C=C(C)C(=O)NCc1ccccc1-c1cc2c(-c3cccc(NC(=O)c4nccs4)c3C)ccc(C(N)=O)c2[nH]1 [D.1.10]
5,< 100,C=CC(=O)Nc1cccc(-c2ccc(C(N)=O)c3[nH]c(-c4cncnc4)cc23)c1C [A.1.10]
6,1000 to 10000,Cc1c(NC(=O)c2nccs2)cccc1-c1ccc(C(N)=O)c2[nH]cc(NC(=O)COc3ccc(F)cc3)c12 [D.3.6]
7,1000 to 10000,"C/C(O)=C(/C#N)C(=O)Nc1cccc(-c2ccc(C(N)=O)c3[nH]ccc23)c1 [Example 7, (E)-4-(3-(2-Cyano-3-hydroxybut-2-enamido)phenyl)-1H -indole-7-carboxamide]"
8,< 100,Cc1c(NC(=O)c2ccc(C3CC3)cc2)cccc1-c1ccc(C(N)=O)c2[nH]c(C3=CCN(S(C)(=O)=O)CC3)cc12 [A.4.16]
9,< 100,"C=CC(=O)N1CC(N(C)c2ccc(C(N)=O)c3[nH]ccc23)C1 [Example 24, 4-((1-Acryloylazetidin-3-yl)(methyl)amino)-1H-indole-7-carboxamide]"
10,< 100,CC(=O)N1CC=C(c2cc3c(-c4cccc(NC(=O)c5ccc(C(C)(C)C)cc5)c4C)ccc(C(N)=O)c3[nH]2)CC1 [A.3.3]
11,100 to 1000,C=CC(=O)Nc1cccc(-c2ccc(C(N)=O)c3[nH]c(-c4cc(S(=O)(=O)N5CCCC5)ccc4C)cc23)c1C [A.1.28]
12,100 to 1000,Cc1c(NC(=O)c2nccs2)cccc1-c1ccc(C(N)=O)c2[nH]c(-c3ccccc3CNC(=O)CCN(C)C)cc12 [D.1.4]
